SMILES strings stand for the structures. Structures can show the parent of a compound that is named as a salt.

One test concerns the target T1, Bradykinin receptor (Cavia porcellus, UniProt O70526).
T1 construct: The ileum was removed and homogenized in buffer; from tissue; host or cells: guinea pig ileum, crude membrane suspension
T1 sequence (O70526 1-372): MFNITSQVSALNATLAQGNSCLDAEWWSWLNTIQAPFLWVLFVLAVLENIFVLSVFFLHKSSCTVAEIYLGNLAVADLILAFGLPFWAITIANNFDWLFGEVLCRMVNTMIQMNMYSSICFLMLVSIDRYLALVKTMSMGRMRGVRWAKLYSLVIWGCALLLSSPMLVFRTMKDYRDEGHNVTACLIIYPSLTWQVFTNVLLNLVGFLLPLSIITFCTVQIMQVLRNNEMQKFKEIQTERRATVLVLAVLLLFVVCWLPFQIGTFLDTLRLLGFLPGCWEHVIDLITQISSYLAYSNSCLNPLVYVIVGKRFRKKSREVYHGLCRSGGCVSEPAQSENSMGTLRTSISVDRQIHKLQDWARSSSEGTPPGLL
The test is described as follows: ^3H-Bradykinin receptor binding (crude guinea pig ileum membrane). Set-up: species or system guinea pigs. Particulars: drug 1 x 10^-5M; ^3H-Bradykinin 0.06 nM; crude ileum membrane suspension; room temperature for 60 minutes; 10 µM. Here is the method:
(a) Crude ileum membrane preparation
Male Hartly strain guinea pigs were sacrificed by decapitation. The ileum was removed and homogenized in buffer (50 mM trimethylaminoethanesulfonic acid (TES), 1 mM 1,10-phenanthroline pH 6.8). The homogenate was centrifuged (1000 xg, 20 minutes) to remove tissue clumps and the supernatant was centrifuges (100,000 xg, 60 minutes) to yield a pellet. The pellet was resuspended in buffer (50 mM TES, 1 mM 1,10-phenanthroline, 140 mg/ℓ bacitracin, 1 mM dithiothreiol, 0.1 % bovine serum albumin pH 6.8) and homogenized with a glass-teflon homogenizer to yield suspension which was referred to as crude membrane suspension. The obtained membrane suspension was stored at -80°C until use.
(b) ^3H-Bradykinin binding to the membrane
The frozen crude membrane suspension was thawed. In binding assays, ^3H-Bradykinin (0.06 nM) and drug (1 x 10^-5M) were incubated with 50 µl of the membrane suspension at room temperature for 60 minutes in a final volume of 250 µl. Separation of receptor-bound from free ^3H-Bradykinin is achieved by immediate filtration under vacuum and washed three times with 5 ml of ice-cold buffer (50 mM Tris-HCl pH 7.5). Non-specific binding was defined as binding in the presence of 0.1 µM Bradykinin. The radioactivity retained on rinsed filters was determined by a liquid-scintillation counter.
Regarding `CCCNC(=O)NCC(=O)N(C)c1ccc(Cl)c(COc2cccn3c(Br)c(C)nc23)c1Cl.Cl` [61-(51), 3-Bromo-8-[2,6-dichloro-3-[N-(N'-n-propylureidoacetyl)-N-methylamino]benzyloxy]-2-methylimidazo[1,2-a]pyridine hydrochloride], the “Inhibition % of ^3H-Bradykinin binding (concentration : 1 x 10^-5M)” value is given as 100%.
With `Cc1nc2c(OCc3c(Cl)ccc(N(C)C(=O)CNC(=O)Nc4cccnc4)c3Cl)cccn2c1Br.Cl.Cl` [61-(54), 3-Bromo-8-[2,6-dichloro-3-[N-[N'-(3-pyridyl)ureidoacetyl]-N-methylamino]benzyloxy]-2-methylimidazo[1,2-a]pyridine dihydrochloride], the “Inhibition % of ^3H-Bradykinin binding (concentration : 1 x 10^-5M)” value came to 100%.

The same test, now with this note: drug 1 x 10^-5M; ^3H-Bradykinin 0.06 nM; crude ileum membrane suspension; room temperature for 60 minutes; read-out: Inhibition % of ^3H-Bradykinin binding (concentration : 1 x 10^-5M).
For the compound `CC(=O)N(C)c1ccc(Cl)c(COc2cccn3c(Br)c(C)nc23)c1Cl` [61-(1), 3-Bromo-8-[2,6-dichloro-3-(N-acetyl-N-methylamino)benzyloxy]-2-methylimidazo[1,2-a]pyridine hydrochloride], the inhibition at 10 µM is 95%.
With `CC(=O)NCC(=O)N(C)c1ccc(Cl)c(COc2cccn3c(Br)c(C)nc23)c1Cl` [61-(5), 8-[3-[N-(Acetylglycyl)-N-methylamino]-2,6-dichlorobenzyloxy]-3-bromo-2-methylimidazo[1,2-a]pyridine hydrochloride], the inhibition at 10 µM stood at 99%.
Regarding `CCCC(=O)NCC(=O)N(C)c1ccc(Cl)c(COc2cccn3c(Br)c(C)nc23)c1Cl` [61-(7), 3-Bromo-8-[3-[N-(butyrylglycyl)-N-methylamino]-2,6-dichlorobenzyloxy]-2-methylimidazo[1,2-a]pyridine hydrochloride], the inhibition at 10 µM was 100%.
Turning to `Cc1nc2c(OCc3c(Cl)ccc(N(C)C(=O)CNC(=O)c4ccccc4)c3Cl)cccn2c1Br` [61-(11), 8-[3-[N-(Benzoylglycyl)-N-methylamino]-2,6-dichlorobenzyloxy]-3-bromo-2-methylimidazo[1,2-a]pyridine hydrochloride], the inhibition at 10 µM was 98%.
Turning to `Cc1nc2c(OCc3c(Cl)ccc(N(C)C(=O)CNC(=O)Cc4ccccc4)c3Cl)cccn2c1Br` [61-(13), 3-Bromo-8-[2,6-dichloro-3-[N-(phenylacetylglycyl)-N-methylamino]benzyloxy]-2-methylimidazo[1,2-a]pyridine hydrochloride], the inhibition at 10 µM is 98%.
The same measure, in the same setting: to `COCC(=O)NCC(=O)CC(=O)N(C)c1ccc(Cl)c(COc2cccn3c(Br)c(C)nc23)c1Cl` [61-(16), 3-Bromo-8-[2,6-dichloro-3-[N-(methoxyacetylglycyl)acetyl-N-methylamino]benzyloxy]-2-methylimidazo[1,2-a]pyridine hydrochloride] belongs 100%.
In the case of `CC(=O)NCC(=O)NCC(=O)N(C)c1ccc(Cl)c(COc2cccn3c(Br)c(C)nc23)c1Cl` [61-(18), 8-[3-[N-(Acetylglycylglycyl)-N-methylamino]-2,6-dichlorobenzyloxy]-3-bromo-2-methylimidazo[1,2-a]pyridine hydrochloride], the inhibition at 10 µM is 97%.
On the same count and under the same terms, under `Cc1nc2c(OCc3c(Cl)ccc(N(C)C(=O)CNC(C)C)c3Cl)cccn2c1Br` [61-(23), 3-Bromo-8-[2,6-dichloro-3-[N-(isopropylglycyl)-N-methylamino]benzyloxy]-2-methylimidazo[1,2-a]pyridine dihydrochloride] stands 100%.
On the same count and under the same terms, to `CCNC(=O)NCC(=O)N(C)c1ccc(Cl)c(COc2cccn3c(Br)c(C)nc23)c1Cl` [61-(28), 3-Bromo-8-[2,6-dichloro-3-[N-(N'-ethylureidoacetyl)-N-methylamino]benzyloxy]-2-methylimidazo[1,2-a]pyridine hydrochloride] belongs 99%.
Regarding `Cc1nc2c(OCc3c(Cl)ccc(N(C)C(=O)CNC(=O)CN(C)C)c3Cl)cccn2c1Br` [61-(41), 3-Bromo-8-[2,6-dichloro-3-[N-[(N,N-dimethylglycyl)glycyl]-N-methylamino]benzyloxy]-2-methylimidazo[1,2-a]pyridine dihydrochloride], the inhibition at 10 µM turned out to be 100%.
For the compound `Cc1nc2c(OCc3c(Cl)ccc(N(C)C(=O)CNC(=S)Nc4ccccc4)c3Cl)cccn2c1Cl` [Example 47, 3-Chloro-8-[2,6-dichloro-3-[N-(N'-phenylthioureidoacetyl)-N-methylamino]benzyloxy]-2-methylimidazo[1,2-a]pyridine], the inhibition at 10 µM was 100%.
The same measure, in the same setting: to `Cc1nc2c(OCc3c(Cl)ccc(N(C)C(=O)CNC(=O)[C@H]4CCCN4)c3Cl)cccn2c1Br` [Example 49, 3-Bromo-8-[2,6-dichloro-3-[N-(D-prolylglycyl)-N-methylamino]benzyloxy]-2-methylimidazo[1,2-a]pyridine dihydrochloride] belongs 100%; to `Cc1nc2c(OCc3c(Cl)ccc([N+](=O)[O-])c3Cl)cccn2c1Br` [Example 60, 3-bromo-8-(2,6-dichloro-3-nitrobenzyloxy)-2-methylimidazo[1,2-a]pyridine hydrochloride], 100%.

The test is the same for the next values; noted with them: read-out: Inhibition % of ^3H-Bradykinin binding (concentration : 1 x 10^-5M).
On to `Cc1nc2c(OCc3c(Cl)ccc(N(C)C(=O)CNC(=O)Oc4ccc([N+](=O)[O-])cc4)c3Cl)cccn2c1Br` [40-(21), 3-Bromo-8-[2,6-dichloro-3-[N-(4-nitrophenoxycarbonylglycyl)-N-methylamino]benzyloxy]-2-methylimidazo[1,2-a]pyridine], for which the inhibition at 10 µM is 97%.

The values above are taken from patent EP0596406B1, “Imidazo (1,2-a) Pyridines as bradykinin antagonists” (FUJISAWA PHARMACEUTICAL CO., LTD., priority 1992, dated 1994).
